Reference: US8450372B2, “Formulations of suberoylanilide hydroxamic acid and methods for producing same” (Merck Sharp & Dohme Corp., priority 2005, dated 2013)
Like-named read-outs stand apart in the source and are kept apart here. Marks after values point to notes of the source that are not given here. One block for each molecule: values may come before it.

Columns and labels:
[1] = Dissolution rate of about 100 mg SAHA API before encapsulation (USP Dissolution Apparatus II, 900 mL 2.0% Tween, 37±0.5° C., 100 rpm, HPLC); assay type: physicochemical; details: for Average SAHA % Dissolved at Time, minutes 0: 0 minutes; for Average SAHA % Dissolved at Time, minutes 10: 10 minutes; for Average SAHA % Dissolved at Time, minutes 15: 15 minutes; for Average SAHA % Dissolved at Time, minutes 20: 20 minutes; for Average SAHA % Dissolved at Time, minutes 30: 30 minutes; for Average SAHA % Dissolved at Time, minutes 45: 45 minutes; for Average SAHA % Dissolved at Time, minutes 60: 60 minutes
Experimental: Dissolution rates or profiles in vitro of “about 100 mg of the active ingredient of the pharmaceutical composition” is measured according to the steps and conditions in Example 15. In one embodiment, it is measured by using a USP Dissolution Apparatus II with a helical sinker (Quality Lab Accessories L.L.C., Manville, N.J.) in 900 mL of 2.0% Tween (TCI America, Portland, Oreg.) at a temperature of 37±0.5° C., and paddles rotated at 100 rpm.
The dissolution rate of 100 mg of SAHA API before encapsulation was evaluated using a USP Dissolution Apparatus II (VK 7000, Varian Inc., Cary, N.C.). About 100 mg of SAHA was delivered to vessels containing 900 mL of 2.0% Tween (TCI America, Portland, Oreg.) at a temperature of 37±0.5° C. The paddles were rotated at 100 rpm and samples were pulled at specified time intervals via an autosampler (VK 8000, Varian Inc., Cary, N.C.) equipped with 35 μm full flow filters (Varian Inc., Cary, N.C.).
Subsequently, samples were assayed for SAHA by High Performance Liquid Chromatography (Agilent 1100 series, Agilent Technologies Inc., Wilmington, Del.). The chromatographic analysis was conducted using a Phenomenex Luna C8 (2) (100×4.6 mm) 5 μm particle size column, a mobile phase of 1:1 methanol/0.1% trifluroacetic acid (Reagent Grade, Fisher), and a detection wavelength of 242 nm.

[2] = Solubility of SAHA raw material (physical and chemical properties of raw materials); assay type: physicochemical; details: water
Excerpt: Table 10 summarizes the physical properties of the raw materials in the capsule.

[3] = Phase I study: single- and multiple-dose serum pharmacokinetics of oral vorinostat 400 mg, fasted and after high-fat meal; assay type: in vivo, human; details: for fe (fraction of dose excreted unchanged in urine): arithmetic mean; for Tmax: median; for AUC(0-t): read-out: AUC0-24 hr
Experimental: (§1) This Phase I study conducted in advanced stage cancer patients assessed safety and tolerability of oral vorinostat administered 400 mg q.d., single- and multiple-dose serum pharmacokinetics (PK) of vorinostat, and the effect of a standard high-fat meal on single-dose vorinostat PK. Patients received a single-dose of 400 mg vorinostat on Day 1 (fasted) and Day 5 (after a standard high-fat meal) with 48 hours of postdose PK sampling on both days. Patients then received 400 mg vorinostat once a day on Days 7 through 28 (22 days of dosing). On Day 28, vorinostat was administered after a standard high-fat meal with PK sampling for 24 hrs postdose. Of 23 patients enrolled, 23 were evaluable for Day 1 PK, 20 for Day 5 PK, and 14 for Day 28 PK. The apparent t1/2 of vorinostat was short.
Table 22: PK Parameters of Vorinostat Following Single and Multiple Doses of Vorinostat 400 mg Daily

[4] = Phase I study: safety and tolerability of oral vorinostat 400 mg q.d.; assay type: in vivo, human; details: short-term administration, patients with advanced cancer
Experimental: as §1

[5] = 400 mg single oral dose, high-fat meal vs fasted
[6] = single dose fed/single dose fasted, 400 mg

Average SAHA % Dissolved at Time, minutes 0 [1]: 0.0%
Average SAHA % Dissolved at Time, minutes 10 [1]: 37.8%
Average SAHA % Dissolved at Time, minutes 15 [1]: 46.1%
Average SAHA % Dissolved at Time, minutes 20 [1]: 52.1%
Average SAHA % Dissolved at Time, minutes 30 [1]: 61.9%
Average SAHA % Dissolved at Time, minutes 45 [1]: 71.8%
Average SAHA % Dissolved at Time, minutes 60 [1]: 79.3%
SMILES: O=C(CCCCCCC(=O)Nc1ccccc1)NO [1007D, suberoylanilide hydroxamic acid]

Average SAHA % Dissolved at Time, minutes 0 [1]: 0.0%
Average SAHA % Dissolved at Time, minutes 10 [1]: 26.8%
Average SAHA % Dissolved at Time, minutes 15 [1]: 34.8%
Average SAHA % Dissolved at Time, minutes 20 [1]: 41.5%
Average SAHA % Dissolved at Time, minutes 30 [1]: 51.3%
Average SAHA % Dissolved at Time, minutes 45 [1]: 61.8%
Average SAHA % Dissolved at Time, minutes 60 [1]: 69.8%
SMILES: O=C(CCCCCCC(=O)Nc1ccccc1)NO [1008D, suberoylanilide hydroxamic acid]

Average SAHA % Dissolved at Time, minutes 0 [1]: 0.0%
Average SAHA % Dissolved at Time, minutes 10 [1]: 31.1%
Average SAHA % Dissolved at Time, minutes 15 [1]: 39.7%
Average SAHA % Dissolved at Time, minutes 20 [1]: 47.1%
Average SAHA % Dissolved at Time, minutes 30 [1]: 58.3%
Average SAHA % Dissolved at Time, minutes 45 [1]: 70.1%
Average SAHA % Dissolved at Time, minutes 60 [1]: 78.3%
SMILES: O=C(CCCCCCC(=O)Nc1ccccc1)NO [1376-C-RO-02, suberoylanilide hydroxamic acid]

solubility [2]: < 100 µg/mL
Accumulation ratio: AUC0-24 hr multiple dose fed/AUC0-24 hr single dose fed (GMR) ([3]; 400 mg daily): 1.21
Linearity ratio: AUC0-24 hr multiple dose fed/AUC0-∞ single dose fed (GMR) ([3]; 400 mg daily): 1.23
fe (fraction of dose excreted unchanged in urine) ([3]; 400 mg oral, multiple doses (once daily for 22 days), fed, n = 12): 0.0037
t1/2 ([3]; 400 mg oral, multiple doses (once daily for 22 days), fed, harmonic mean): 1.34 h
Cmax ([3]; 400 mg oral, multiple doses (once daily for 22 days), fed, serum, geometric mean): 1130 nM
fe (fraction of dose excreted unchanged in urine) ([3]; 400 mg oral, single dose, fasted, n = 22): 0.0021
Tmax ([3]; 400 mg oral, single dose, fasted): 1.50 h
AUC0-∞ ([3]; 400 mg oral, single dose, fed (high-fat meal), serum, geometric mean): 5.33 µM·h
fe (fraction of dose excreted unchanged in urine) ([3]; 400 mg oral, single dose, fed, n = 21): 0.0030
AUC0-24 hr ([3]; 400 mg oral, single dose, fed, serum, geometric mean): 5.33 µM·h
extent of absorption, effect of high-fat meal [3, 5]: small increase
rate of absorption, effect of high-fat meal [3, 5]: modest decrease
apparent t1/2 ([3]; advanced cancer patients, 400 mg oral, serum): short
Tmax, effect of high-fat meal ([3]; fed state, 400 mg oral): delayed
lag time before detectable levels in serum ([3]; fed state, most subjects, 400 mg oral): at least 15 minutes
Tmax ([3]; human, serum, po, 400 mg, 400 mg oral, multiple doses (once daily for 22 days), fed, read-out: Tmax): 4.21 h
AUC(0-t) ([3]; human, serum, po, 400 mg, 400 mg oral, multiple doses (once daily for 22 days), fed, serum, geometric mean): 6.46 µM·h
Cmax ([3]; human, serum, po, 400 mg, 400 mg oral, single dose, fasted, geometric mean): 1120 nM
half-life ([3]; human, serum, po, 400 mg, 400 mg oral, single dose, fasted, harmonic mean): 1.74 h
AUC(0-t) ([3]; human, serum, po, 400 mg, 400 mg oral, single dose, fasted, serum, geometric mean): 3.82 µM·h
Cmax ([3]; human, serum, po, 400 mg, 400 mg oral, single dose, fed, geometric mean): 1020 nM
half-life ([3]; human, serum, po, 400 mg, 400 mg oral, single dose, fed, harmonic mean): 1.44 h
Tmax ([3]; human, serum, po, 400 mg, 400 mg oral, single dose, fed, read-out: Tmax): 4 h
AUC(0-inf) ([3]; human, 400 mg oral, single dose, fasted, serum, geometric mean): 3.87 µM·h
AUC0-∞ GMR (geometric mean ratio) [3, 6]: 1.38^§
Cmax GMR (geometric mean ratio) [3, 6]: 0.91^§
SMILES: O=C(CCCCCCC(=O)Nc1ccccc1)NO [vorinostat, N-hydroxy-N′-phenyloctanediamide]
Trough concentrations ([3]; multiple-dose administration, 400 mg once a day, serum): generally below the limit of quantification
tolerability [4]: generally well tolerated

Average SAHA % Dissolved at Time, minutes 0 [1]: 0.0%
Average SAHA % Dissolved at Time, minutes 10 [1]: 38.2%
Average SAHA % Dissolved at Time, minutes 15 [1]: 48.9%
Average SAHA % Dissolved at Time, minutes 20 [1]: 57.3%
Average SAHA % Dissolved at Time, minutes 30 [1]: 69.3%
Average SAHA % Dissolved at Time, minutes 45 [1]: 80.6%
Average SAHA % Dissolved at Time, minutes 60 [1]: 87.7%
SMILES: O=C(CCCCCCC(=O)Nc1ccccc1)NO [1136-1136-00-001, suberoylanilide hydroxamic acid]
